The term melting point denotes the temperature, or range, at which the solid turns liquid. For orientation: IC50 means the concentration at which inhibition is half-maximal.

In one data set the test system is H1N1. The conditions noted are these: cited from earlier work.
The test system of a further data set is influenza A/WSN/33 virus. To be noted: cited from earlier work.
For the next data set, the system named is RAW 264.7 cells. The conditions noted are these: cited from earlier work.
A further data set is described as follows: in vitro. The conditions noted are these: Rhesus monkey.
A further data set has as its system chemokine co-receptor 5. The conditions noted are these: cited from earlier work.

Molecules are shown by their SMILES. Some results are limits rather than exact numbers.

For `CC(C)/C=c1\[nH]c(=O)/c(=C/c2ccccc2)[nH]c1=O` [Compound 13f, (3Z,6Z)-3-Benzylidene-6-(2-methylpropylidene)-2,5-diketopiperazine], the melting point fell in the range of 243 to 246 °C. Moreover, the half-maximal inhibitory concentration (IC50) with H1N1 is 41.5 ± 4.5 µM.
`CC(C)/C=c1\[nH]c(=O)/c(=C/c2ccc(O)cc2)[nH]c1=O` [(3Z,6Z)-3-(4-hydroxybenzylidene)-6-isobutylidenepiperazine-2,5-dione, reference compound]: in the data set on H1N1, the IC50 was 6.8 ± 1.5 µM.
Compound `C=CCn1c(=O)/c(=C/c2ccccc2)[nH]c(=O)/c1=C/C(C)C` [Compound 13e, (3Z,6Z)-1-Allyl-3-benzylidene-6-(2-methylpropylidene)-2,5-diketopiperazine] returned a melting point of 115 to 119 °C.
On to `C=CC(C)(C)c1[nH]c2ccccc2c1/C=c1\[nH]c(=O)c(=C)[nH]c1=O` [Neoechinulin B], for which the inhibitory rate in the data set on influenza A/WSN/33 virus is 70.48%.
Take `CC(C)/C=c1\c(=O)[nH]/c(=C/c2ccccc2)c(=O)n1C` [LS-D, reference compound]: the anti-inflammatory effect result in the data set on RAW 264.7 cells is on record as “anti-inflammatory effect”. For the same compound, in the data set “in vitro”, the IC50 was > 128 µg/mL.
With `CC(C)C=c1c(=O)[nH]c(=Cc2ccccc2)c(=O)n1CCN1CCCC1` [Compound 14c, (3Z,6E)-3-Benzylidene-6-(2-methylpropylidene)-1-(1-ethylpyrrolidine)-2,5-diketopiperazine], the melting point was in the range of 158 to 162 °C. The 50% inhibitory concentration (IC50) in “in vitro” is > 128 µg/mL.
As for `CC(C)/C=c1/c(=O)[nH]/c(=C\c2ccccc2)c(=O)n1C` [Compound 13d, (3Z,6Z)-3-Benzylidene-6-(2-methylpropylidene)-1-methyl-2,5-diketopiperazine], in “in vitro”, the IC50 was > 128 µg/mL.
Regarding `CCCCN1C(=O)[C@@H]([C@H](O)C2CCCCC2)NC(=O)C12CCN(Cc1ccc(Oc3ccc(C(=O)O)cc3)cc1)CC2` [Aplaviroc], in the data set with chemokine co-receptor 5, the “binding affinity to chemokine co-receptor 5” value was “high binding affinity”.
As to `CC(C)/C=c1\c(=O)n(O)/c(=C/c2ccccc2)c(=O)n1C` [LS-C, reference compound], the anti-inflammatory effect entry in the data set on RAW 264.7 cells was “anti-inflammatory effect”. Further, the IC50 in the data set “in vitro” was > 128 µg/mL.
As for `C=CCn1c(=O)/c(=C/C(C)C)[nH]c(=O)/c1=C/c1ccccc1` [Compound 13b, (3Z,6Z)-4-Allyl-3-benzylidene-6-(2-methylpropylidene)-2,5-diketopiperazine], the IC50 in “in vitro” is > 128 µg/mL.
Compound `CC(C)=CCn1c(=O)/c(=C/C(C)C)[nH]c(=O)/c1=C/c1ccccc1` [Compound 13c, (3Z,6Z)-3-Benzylidene-6-(2-methylpropylidene)-4-(3-methylbut-2-en-1-yl)-2,5-diketopiperazine] came in with a melting point of 175 to 178 °C. For the same compound, in “in vitro”, the IC50 is > 128 µg/mL.

The record behind these values is article PMC9268516 (Molecules, 2022).
